Measured values published in patent US20040266885A1, “Wood preservative compositions” (priority 2001, published 2004).
Several values for one entry are separate records, joined by “and”; a condition that tells them apart may be missing. Equal values may be shown once. Entries after “also recorded” stand apart in the source; their conditions may differ. Read-outs that look alike come from different tables or passages of the source.

Experiments:
C. formosanus = assay: Laboratory termite test, modified ASTM 3345-74, soil/sand culture, NaOH carrier, blocks not leached; type: in vivo; parameters: Termite Attack Rating / Mean Rating (termite attack): scale not given here; settings: for Mean Rating (termite attack): mean of 4 specimens; for Mean Rating (termite attack) / Termite Attack Rating: 4 weeks soil/sand culture; for Termite Attack Rating: single specimen; on Termite Attack Rating: key: Score 0: No attack; Score 1: Attempted attack; Score 2: Slight attack; Score 3: Average attack; Score 4: Strong attack
Method: A further experiment was undertaken according to the modified ASTM 3345-74 test detailed in Example 2 with the following 6 changes to the protocol:
1. The solutions tested were as follows:
2. The incubation substrate was a soil/sand mixture (1:1) to which had been added 75 ml of de-ionised water. This substrate was chosen as being more representative of the laboratory conditions under which the wild caught termites (C. formosanus) were maintained.
3. The treated timber samples were positioned on plastic mesh on top of the soil substrate. This method of placement is that used in European Standard EN 117 and is more representative of the feeding conditions of the wild caught termites maintained in the laboratory.
4. 250 termites were used in each incubation vessel.
5. The wood block specimens were not subjected to a leaching process.
6. Evidence of termite tunneling activity and mortality was determined at completion of the incubation period only (4 weeks) and no examinations were undertaken for surface activity.

Coptotermes formosanus = settings: for Mean Rating (termite attack): mean of 4 specimens; for Mean Rating (termite attack) / Termite Attack Rating: 4 weeks sand culture; for Termite Attack Rating: single specimen
Source text: A laboratory test was undertaken to determine the toxic values of novel actives against termites. The active materials used were TBBA, TBBE [4,4′-ethylidenebis(2,6-dibromophenol)] [CAS RN=12639-25-3] (Sample Number 1392-82-03); TBBZ [4,4′-cyclohexylidene(2,6-dibromophenol)] [CAS RN=53350-96-2] (Sample Number 1392-72-03) and TBA, 2,2′,6-tribromo-4,4′-isopropylidenediphenol, CAS 6386-73-8 (Sample Number 1392-75-03).
The test was undertaken largely according to the strictures laid down in ASTM 3345-74 (the American standard laboratory test to assess the termite resistant properties of wood to wood destroying termites). The test method allows for the exposure of treated buried wood blocks to termites (Reticulitermes or Coptotermes spp.) over a period of 4 weeks. Efficacy of the product is determined by the extent of termite damage to the treated timber specimens through a scoring system. The test was slightly modified from the standard ASTM test by reducing the number of replicate wood specimens from 5 to 4.
Score 1: Attempted attack
The toxic values of the preservative product (in kg/m^3 of wood) fall between two values as follows:
1) The lowest concentration which protects the wood (i.e. the concentration at which none of the test specimens show a degree of attack greater than 1).
The termites employed were Coptotermes formosanus.
All wood bock specimens were of Southern Yellow Pine sapwood (Pinus spp.) with dimensions of 25.4×25.4×6.4 mm in accordance with ASTM D3345-74. All blocks were vacuum impregnated with the relevant solutions in accordance with ASTM D3345-74. Distribution of blocks in the test was as follows:
The test specimens were conditioned and subjected to a leaching schedule (after vacuum impregnation) as stipulated in ASTM D1413-76 (as recommended in ASTM D3345-74). All test specimens were then air dried for two weeks to constant weight.
The specimens were each positioned at the base of a 500 ml polyethylene culture jar (numbered according to each test specimen) and covered with 200 g of sand (pre-washed, sterilised and air conditioned in the laboratory) to which was added 25 g of de-ionised water. A further two containers containing watered sand but no timber were also prepared. All the jars were sealed (lids pre-pierced and covered with stainless steel mesh for aeration).
Two days after specimen placement, 200 termites were added to each culture jar (90% workers and 10% soldiers) and the jars re-sealed. The jars were incubated at a mean temperature and relative humidity of 27.5° C. and 75-90% for 4 weeks. The containers were provided with an artificial lighting regime of 10 hours light and 14 hours darkness.
After 1 week and 4 weeks each container was examined to determine termite mortality and normal tunneling behaviour patterns as follows:
Is there tunneling present: YES/NO
Are there any termites on the surface of the soil: YES/NO (if yes how many, i.e. 1-25% of pop, 26-50% of pop, 51-100% of pop.)
Are any dead termites visible: YES/NO (if yes how many, 1-33%, 34-66%, 67-100%)
After 4 weeks the test specimens were removed and cleaned of debris. Each block was examined and visually rated for termite damage using the scoring system detailed above.

[1] = 1 week, solution conc. 1%, ethanol carrier
[2] = 1 week, solution conc. 3%, ethanol carrier
[3] = 1 week, solution conc. 5%, ethanol carrier
[4] = 1 week, solution conc. 7%, ethanol carrier
[5] = 1 week, solution conc. 10%, ethanol carrier
[6] = 4 weeks, solution conc. 1%, ethanol carrier
[7] = 4 weeks, solution conc. 3%, ethanol carrier
[8] = 4 weeks, solution conc. 5%, ethanol carrier
[9] = 4 weeks, solution conc. 7%, ethanol carrier
[10] = 4 weeks, solution conc. 10%, ethanol carrier
[11] = solution conc. 1%, ethanol carrier
[12] = solution conc. 3%, ethanol carrier
[13] = solution conc. 5%, ethanol carrier
[14] = solution conc. 7%, ethanol carrier
[15] = solution conc. 10%, ethanol carrier

## CC(C)(c1cc(Br)c(O)c(Br)c1)c1cc(Br)c(O)c(Br)c1 [TBBA, Tetrabromobisphenol A]
C. formosanus
  termiticidal and termite repellent activity (conclusion): significant termiticidal and termite repellent activity
C. formosanus; 4 weeks
  termite survival / mortality at the end of the test period: the majority of the termites were still active at the end of the test period
C. formosanus; 4 weeks, solution conc. 1%
  Tunneling Activity: Yes
  Visible Mortality: No
C. formosanus; 4 weeks, solution conc. 3%
  Tunneling Activity: Yes
  Visible Mortality: 1-33%
C. formosanus; 4 weeks, solution conc. 5%
  Tunneling Activity: Yes
  Visible Mortality: 1-33%
C. formosanus; 4 weeks, solution conc. 7%
  Tunneling Activity: Yes
  Visible Mortality: 1-33%
C. formosanus; 4 weeks, solution conc. 10%
  Tunneling Activity: Yes
  Visible Mortality: 1-33%
C. formosanus; all concentrations used (1-10%), 4 weeks
  prevention of termite attack / restriction of termite damage: significant attack was prevented by all concentrations; also recorded: a very significant effect in restricting termite damage
C. formosanus; mean loading, solution concentration 3% (TBBF) or 1%, not leached
  toxic value, upper (lowest concentration which protects the wood): 7.27 kg/m^3
C. formosanus; solution conc. 1%
  Mean Rating (termite attack): 1.00
  Termite Attack Rating: 1
C. formosanus; solution conc. 3%
  Mean Rating (termite attack): 1.00
  Termite Attack Rating: 1
C. formosanus; solution conc. 5%
  Mean Rating (termite attack): 1.00
  Termite Attack Rating: 1
C. formosanus; solution conc. 7%
  Mean Rating (termite attack): 0.75
  Termite Attack Rating: 1 and 0
C. formosanus; solution conc. 10%
  Mean Rating (termite attack): 1.00
  Termite Attack Rating: 1
C. formosanus; specimens treated with 5, 7 and 10% solutions only partially soil covered
  repellent effect (soil covering of test specimens): acting as a repellent throughout the trial period
Coptotermes formosanus; [1]
  Surface Activity (termites on the surface of the soil): No/No
  Tunneling Activity: Yes/Yes
  Visible Mortality: No/No
Coptotermes formosanus; [2]
  Surface Activity (termites on the surface of the soil): No/No
  Tunneling Activity: Yes/Yes
  Visible Mortality: No and No/No
Coptotermes formosanus; [3]
  Surface Activity (termites on the surface of the soil): 1-25 % (of pop.)
  Tunneling Activity: Yes/Yes
Coptotermes formosanus; [4]
  Surface Activity (termites on the surface of the soil): No/No
  Tunneling Activity: Yes/Yes
  Visible Mortality: No
Coptotermes formosanus; [5]
  Surface Activity (termites on the surface of the soil): No
  Tunneling Activity: Yes/Yes
  Visible Mortality: No
Coptotermes formosanus; [6]
  Surface Activity (termites on the surface of the soil): No/No
  Tunneling Activity: Yes/Yes
  Visible Mortality: No/No
Coptotermes formosanus; [7]
  Surface Activity (termites on the surface of the soil): No/No
  Tunneling Activity: Yes/Yes
Coptotermes formosanus; [8]
  Surface Activity (termites on the surface of the soil): No
  Tunneling Activity: Yes/Yes
Coptotermes formosanus; [9]
  Surface Activity (termites on the surface of the soil): No/No
  Tunneling Activity: Yes/Yes
Coptotermes formosanus; [10]
  Surface Activity (termites on the surface of the soil): 1-25 % (of pop.)
  Tunneling Activity: Yes/Yes
  Visible Mortality: 67-100 % (of pop.)
Coptotermes formosanus; concentrated solutions, followed by leaching
  reduction in termite attack: a significant reduction in termite attack
Coptotermes formosanus; ethanol carrier
  repellent effect on termites (surface activity data): a degree of termite repellency throughout the incubation period
Coptotermes formosanus; mean loading, solution concentration 5%, ethanol carrier, leached, 4 weeks
  toxic value, lower (concentration at which the wood is no longer sufficiently protected): 32.52 kg/m^3
Coptotermes formosanus; mean loading, solution concentration 7%, ethanol carrier, leached, 4 weeks
  toxic value, upper (lowest concentration which protects the wood): 44.00 kg/m^3
Coptotermes formosanus; [11]
  Mean Rating (termite attack): 2.75
  Termite Attack Rating: 3 and 2 and 4
Coptotermes formosanus; [12]
  Mean Rating (termite attack): 2.25
  Termite Attack Rating: 2 and 3
Coptotermes formosanus; [13]
  Mean Rating (termite attack): 1.50
  Termite Attack Rating: 1 and 2
Coptotermes formosanus; [14]
  Mean Rating (termite attack): 1.00
  Termite Attack Rating: 1
Coptotermes formosanus; [15]
  Mean Rating (termite attack): 1.00
  Termite Attack Rating: 1
